Test results reported in article PMC9503459, “Antifungal Activity, Structural Stability, and Immunomodulatory Effects on Human Immune Cells of Defensin from the Lentil Lens culinaris” (Membranes, 2022).
No end group written: not given here.

Test system: CD4+ T-helper cells
Test: Cytokine response by multiplex xMAP, CD4+ T-helper cells
Assay type: cell-based, human
Conditions: 2 µM, 24 h
Procedure: Colorectal adenocarcinoma Caco-2 cell line (ATCC HTB-37) was cultured in complete DMEM/F12 (1:1) medium containing 10% fetal bovine serum (FBS, Gibco) and 1X antibiotic-antimycotic solution (1XAAS, Invitrogen, Waltham, MA, USA). The acute monocytic leukemia THP-1 line (ATCC TIB-202) was cultured in complete RPMI-1640 medium, containing 10% FBS, 1XAAS, and […]. THP-1 cells were differentiated into pro-inflammatory macrophages (Mφ1) with phorbol 12-myristate 13-acetate (Sigma-Aldrich) for 24 h and subsequently polarized with lipopolysaccharide from E. coli (Sigma-Aldrich) and rhIFN-γ (Sigma-Aldrich) for another 48 h according to previously reported protocol. All cells were cultured in a humidified CO2 incubator (5% CO2, 37 °C). Primary peripheral blood mononuclear cells (PBMCs) collected from a healthy donor were purchased from American Type Culture Collection (ATCC PCS-800-011). CD4^+ T-helper and CD8^+ T cytotoxic cells were isolated from PBMCs by magnetic separation with mouse anti-human CD4-PE (clone 13B8.2, Beckman Coulter Diagnostics, Pasadena, CA, USA) and CD8-PE (clone REA734, Miltenyi Biotec, Bergisch Gladbach, Germany), Anti-PE MicroBeads (Miltenyi Biotec), and LS Separation Columns (Miltenyi Biotec). Isolated CD4^+ and CD8^+ cells were expanded separately with Dynabeads™ Human T-Expander CD3/CD28 (Gibco, Waltham, MA, USA) in RPMI-1640 supplemented with 10% FBS, 1XAAS and 100 U/mL rh-IL-2 (Gibco). Regulatory CD4^+ FoxP3^+ T cells (Tregs) were isolated from PBMCs by magnetic separation with CD4^+CD25^+ Regulatory T Cell Isolation Kit, human (Miltenyi Biotec). Primary CD14^+ blood monocytes were isolated from PBMCs by adherence according to standard technique. Monocyte-derived mature dendritic cells (moDCs) were obtained from CD14^+ blood monocytes according to the previously reported protocol. Briefly, blood monocytes were incubated in complete RPMI-1640 medium, containing 10% FBS, 1XAAS, 800 U/mL rhGM-CSF (Sci-Store, Russia, Moscow) and 500 U/mL rhIL-4 (Sci-Store) for 3 days. Fresh complete RPMI-1640 medium with rhGM-CSF and rhIL-4 was added to the culture on day 3. On day 5, fresh complete RPMI-1640 containing 100 U/mL rhTNF-α (Sigma) as well as 800 U/mL rhGM-CSF and 500 U/mL rhIL-4 was added and the culture was incubated for another 4 days until full maturation.
Caco-2 cells were seeded into the wells of a 48-well plate, coated with 0.1% bovine collagen (Sigma-Aldrich) for 24 h, 3 weeks before the experiment with complete DMEM/F12 (1:1) medium renewal every 2–3 days. Monocytes, moDCs, CD4^+ T-helper and CD8^+ T cytotoxic cells, Mφ1, and Regulatory CD4^+ FoxP3^+ T cells were seeded into the wells of 48-well plates in the complete RPMI-1640 medium supplemented with 10% Human AB serum (HABS, Capricorn Scientific, Ebsdorfergrund, Germany) and 1XAAS 24 h prior to the experiment; medium in Caco-2-containing wells was also replaced with the same medium. After 24 h, half of the medium in each well was replaced by fresh complete RPMI-1640 medium with 10% HABS, supplemented with 4 µM of Lc-def for the sample wells or fresh medium alone for the control wells. Cell cultures were kept in CO2-incubator (5% CO2, 37 °C) for another 24 h. Culture supernatants were collected 24 h later and stored at −70 °C degrees less than one month prior to the analytes assessment. […]

For “Lc-def: defensin from lentil Lens culinaris seeds (UniProt:B3F051), recombinant, overexpressed in Escherichia coli (KTCENLSDSFKGPCIPDGNCNKHCKEKEHLLSGRCRDDFRCWCTRNC; disulfide (positions not given here); ends not checked; also: disulfide bonds present, pairing not given here; UniProt B3F051 28-74, looked up)”, the EGF was <1.95↓ pg/ml, the Eotaxin was <3.23↓ pg/ml and the FGF-2 was 0 pg/mL. For the same substance, the FLT-3L was <0.45↓ pg/ml, the Fractalkine was <23.19↓ pg/ml and the G-CSF was <2.57↓ pg/ml. For the same substance, the GM-CSF was <1.36↓ pg/ml, the GROa was <0.67↓ pg/ml and the IFNa2 was <4.43↓ pg/ml. For the same substance, the IFNg was <1.99↓ pg/ml, the IL-1RA was <0.83↓ pg/ml and the IL-1a was 8.24 pg/mL. The IL-1b was <18.72↓ pg/ml, the IL-2 was <0.31↓ pg/ml and the IL-3 was <0.48↓ pg/ml. The IL-4 was <0.31↓ pg/ml, the IL-5 was 0.97 pg/mL and the IL-6 was <0.30↓ pg/ml. For the same substance, the IL-7 was <0.33↓ pg/ml, the IL-8 was <0.49↓ pg/ml and the IL-9 was <1.05↓ pg/ml. For the same substance, the IL-10 was <0.68↓ pg/ml, the “IL-12 (p40)” value was <3.02↓ pg/ml and the “IL-12 (p70)” value was <1.48↓ pg/ml. The IL-13 was <5.00↓ pg/ml, the IL-15 was <1.45↓ pg/ml and the IL-17A was <1.55↓ pg/ml. For the same substance, the IL-17E/IL-25 was <20.59↓ pg/ml, the IL-17F was <16.96↓ pg/ml and the IL-18 was <0.35↓ pg/ml. The IL-22 was <8.31↓ pg/ml, the IL-27 was <8.55↓ pg/ml and the IP-10 was <1.56↓ pg/ml. The M-GSF was <23.75↓ pg/ml, the MCP-1 was <1.52↓ pg/ml and the MCP-3 was <3.95↓ pg/ml. The MDC was <0.35↓ pg/ml, the MIG was <3.43↓ pg/ml and the MIP-1a was 7.47 pg/mL. The MIP-1b was 3.99 pg/mL, the PDGF-AA was <7.38↓ pg/ml and the PDGF-AB/BB was <9.75↓ pg/ml. The RANTES was 236.88 pg/mL, the TGF-a was <0.66↓ pg/ml and the TNFa was <3.91↓ pg/ml. For the same substance, the TNFb was <0.73↓ pg/ml, the VEGFa was <1.27↓ pg/ml and the “effects on cytokine production” value was “No effects”. The sCD40L was <6.66↓ pg/ml.
